In general, melting point refers to the temperature, or range, at which the solid turns liquid.

The values below come from US20240300932A1, “N-PHENYLIMINE DERIVATIVE AND PREPARATION METHOD AND USE THEREOF” (Guizhou University, priority 2023, published 2024).

One series deals with Abutilon theophrasti. Put plainly: Post-emergence herbicidal activity test (stem and leaf spray, pot culture). Type of series: in vivo. As to conditions: 3 weeks after spraying. Put shortly: (§1)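 Greenhouse pot-grown weeds (loam, pH 7) sprayed post-emergence at 2- to 3-leaf stage with acetone/Tween 80 formulation plus 1.5 liters/ha methyl oleate, at 10, 5 and 2.5 g/mu. Fresh-weight growth control rated 3 weeks later on 0–5 grade scale.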

The subject of a further series is Amaranthus retroflexus. The series is described as above. The format is in vivo. The following applies: 3 weeks after spraying. The method, boiled down: as §1
A further series relates to Echinochloa crusgalli. The description is as above. The format is in vivo. As to conditions: 3 weeks after spraying. Put shortly:
as §1

The next series has as its system Portulaca oleracea. Described as above. The format is in vivo. As to conditions: 3 weeks after spraying. The method, boiled down: as §1
The subject of the next series is Setaria viridis. The series is described as above. Type of series: in vivo. The following applies: 3 weeks after spraying. The method, boiled down:
as §1

A further series concerns Trifoliumre pensL. Put plainly: Post-emergence herbicidal activity test (stem and leaf spray, pot culture). Type of series: in vivo. The following applies: 3 weeks after spraying. The method, boiled down: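 Pot-grown weeds in loam (pH 7), greenhouse at 20–30 °C, sprayed once post-emergence at the 2–3-leaf stage. Compound in acetone with Tween 80 plus methyl oleate oil (1.5 L/ha), applied at 10, 5 and 2.5 g/mu by spray tower. Effect scored 3 weeks after spraying, averaged over three repeats.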

Compound `O=C(COc1cc(N2C(=O)C3=C(CCCC3)C2=O)c(F)cc1Cl)c1ccccc1` [Compound C1, 2-(4-chloro-2-fluoro-5-(2-oxo-2-phenylethoxy)phenyl)-4,5,6,7-tetrahydro-1H-isoindole-1,3(2H)-dione] returned a melting point of 124 to 131 °C. The “Post-emergence herbicidal activity, A. theophrasti (grade)” value with Abutilon theophrasti (dosage 2.5 g/mu) is listed as 5 (Grade 5: the growth control rate is greater than or equal to 85%). Besides, the “Post-emergence herbicidal activity, A. theophrasti (grade)” value in the series on Abutilon theophrasti (dosage 5 g/mu) is recorded as 5 (Grade 5: the growth control rate is greater than or equal to 85%). In the series on Abutilon theophrasti (dosage 10 g/mu), the “Post-emergence herbicidal activity, A. theophrasti (grade)” value is 5 (Grade 5: the growth control rate is greater than or equal to 85%). Also, the “Post-emergence herbicidal activity, A. retroflexus (grade)” value in the series on Amaranthus retroflexus (dosage 2.5 g/mu) is given as 5 (Grade 5: the growth control rate is greater than or equal to 85%). Besides, the “Post-emergence herbicidal activity, A. retroflexus (grade)” value with Amaranthus retroflexus (dosage 5 g/mu) was 5 (Grade 5: the growth control rate is greater than or equal to 85%). Also, the “Post-emergence herbicidal activity, A. retroflexus (grade)” value in the series on Amaranthus retroflexus (dosage 10 g/mu) is 5 (Grade 5: the growth control rate is greater than or equal to 85%). The “Post-emergence herbicidal activity, E. crusgalli (grade)” value with Echinochloa crusgalli (dosage 2.5 g/mu) was 1 (Grade 1: the growth control rate is greater than or equal to 5% and less than 20%). In addition, the “Post-emergence herbicidal activity, E. crusgalli (grade)” value in the series with Echinochloa crusgalli (dosage 5 g/mu) is 2 (Grade 2: the growth control rate is greater than or equal to 20% and less than 40%). In the series on Echinochloa crusgalli (dosage 10 g/mu), the “Post-emergence herbicidal activity, E. crusgalli (grade)” value is 3 (Grade 3: the growth control rate is greater than or equal to 40% and less than 60%). The “Post-emergence herbicidal activity, P. oleracea (grade)” value with Portulaca oleracea (dosage 2.5 g/mu) was 5 (Grade 5: the growth control rate is greater than or equal to 85%). Moreover, the “Post-emergence herbicidal activity, P. oleracea (grade)” value in the series with Portulaca oleracea (dosage 5 g/mu) is reported as 5 (Grade 5: the growth control rate is greater than or equal to 85%). For the same compound, the “Post-emergence herbicidal activity, P. oleracea (grade)” value in the series on Portulaca oleracea (dosage 10 g/mu) is 5 (Grade 5: the growth control rate is greater than or equal to 85%). The “Post-emergence herbicidal activity, S. viridis (grade)” value with Setaria viridis (dosage 2.5 g/mu) was 2 (Grade 2: the growth control rate is greater than or equal to 20% and less than 40%). Moreover, in the series with Setaria viridis (dosage 5 g/mu), the “Post-emergence herbicidal activity, S. viridis (grade)” value is 3 (Grade 3: the growth control rate is greater than or equal to 40% and less than 60%). The “Post-emergence herbicidal activity, S. viridis (grade)” value with Setaria viridis (dosage 10 g/mu) was 4 (Grade 4: the growth control rate is greater than or equal to 60% and less than 85%). Besides, in the series with Trifoliumre pensL. (dosage 2.5 g/mu), the “Post-emergence herbicidal activity, Trifoliumre pensL. (grade)” value is listed as 5 (Grade 5: the growth control rate is greater than or equal to 85%). Besides, the “Post-emergence herbicidal activity, Trifoliumre pensL. (grade)” value in the series on Trifoliumre pensL. (dosage 5 g/mu) was 5 (Grade 5: the growth control rate is greater than or equal to 85%). Also, in the series on Trifoliumre pensL. (dosage 10 g/mu), the “Post-emergence herbicidal activity, Trifoliumre pensL. (grade)” value was 5 (Grade 5: the growth control rate is greater than or equal to 85%).

In the case of `N#Cc1ccc(C(=O)COc2cc(N3C(=O)C4=C(CCCC4)C3=O)c(F)cc2Cl)cc1` [Compound C3, 2-(4-chloro-2-fluoro-5-(2-oxo-2-(4-cyanophenyl)ethoxy)phenyl)-4,5,6,7-tetrahydro-1H-isoindole-1,3(2H)-dione], the melting point is 171 to 178 °C. Further, the “Post-emergence herbicidal activity, A. theophrasti (grade)” value with Abutilon theophrasti (dosage 2.5 g/mu) is 5 (Grade 5: the growth control rate is greater than or equal to 85%). The “Post-emergence herbicidal activity, A. theophrasti (grade)” value in the series with Abutilon theophrasti (dosage 5 g/mu) is given as 5 (Grade 5: the growth control rate is greater than or equal to 85%). Also, the “Post-emergence herbicidal activity, A. theophrasti (grade)” value with Abutilon theophrasti (dosage 10 g/mu) is listed as 5 (Grade 5: the growth control rate is greater than or equal to 85%). In addition, the “Post-emergence herbicidal activity, A. retroflexus (grade)” value in the series with Amaranthus retroflexus (dosage 2.5 g/mu) was 5 (Grade 5: the growth control rate is greater than or equal to 85%). Further, in the series with Amaranthus retroflexus (dosage 5 g/mu), the “Post-emergence herbicidal activity, A. retroflexus (grade)” value is recorded as 5 (Grade 5: the growth control rate is greater than or equal to 85%). Moreover, in the series on Amaranthus retroflexus (dosage 10 g/mu), the “Post-emergence herbicidal activity, A. retroflexus (grade)” value is reported as 5 (Grade 5: the growth control rate is greater than or equal to 85%). In the series on Echinochloa crusgalli (dosage 2.5 g/mu), the “Post-emergence herbicidal activity, E. crusgalli (grade)” value is 1 (Grade 1: the growth control rate is greater than or equal to 5% and less than 20%). Besides, the “Post-emergence herbicidal activity, E. crusgalli (grade)” value in the series with Echinochloa crusgalli (dosage 5 g/mu) is 2 (Grade 2: the growth control rate is greater than or equal to 20% and less than 40%). In addition, in the series with Echinochloa crusgalli (dosage 10 g/mu), the “Post-emergence herbicidal activity, E. crusgalli (grade)” value is 3 (Grade 3: the growth control rate is greater than or equal to 40% and less than 60%). In addition, the “Post-emergence herbicidal activity, P. oleracea (grade)” value in the series on Portulaca oleracea (dosage 2.5 g/mu) is 5 (Grade 5: the growth control rate is greater than or equal to 85%). Besides, the “Post-emergence herbicidal activity, P. oleracea (grade)” value with Portulaca oleracea (dosage 5 g/mu) is listed as 5 (Grade 5: the growth control rate is greater than or equal to 85%). Also, the “Post-emergence herbicidal activity, P. oleracea (grade)” value in the series with Portulaca oleracea (dosage 10 g/mu) was 5 (Grade 5: the growth control rate is greater than or equal to 85%). Further, in the series with Setaria viridis (dosage 2.5 g/mu), the “Post-emergence herbicidal activity, S. viridis (grade)” value is 2 (Grade 2: the growth control rate is greater than or equal to 20% and less than 40%). In addition, the “Post-emergence herbicidal activity, S. viridis (grade)” value in the series on Setaria viridis (dosage 5 g/mu) was 3 (Grade 3: the growth control rate is greater than or equal to 40% and less than 60%). Further, the “Post-emergence herbicidal activity, S. viridis (grade)” value in the series with Setaria viridis (dosage 10 g/mu) is 4 (Grade 4: the growth control rate is greater than or equal to 60% and less than 85%). Besides, in the series on Trifoliumre pensL. (dosage 2.5 g/mu), the “Post-emergence herbicidal activity, Trifoliumre pensL. (grade)” value is 5 (Grade 5: the growth control rate is greater than or equal to 85%). Further, in the series with Trifoliumre pensL. (dosage 5 g/mu), the “Post-emergence herbicidal activity, Trifoliumre pensL. (grade)” value is recorded as 5 (Grade 5: the growth control rate is greater than or equal to 85%). In the series on Trifoliumre pensL. (dosage 10 g/mu), the “Post-emergence herbicidal activity, Trifoliumre pensL. (grade)” value is on record as 5 (Grade 5: the growth control rate is greater than or equal to 85%).

`O=C(COc1cc(N2C(=O)C3=C(CCCC3)C2=O)c(F)cc1Cl)c1ccccc1F` [Compound C4, 2-(4-chloro-2-fluoro-5-(2-oxo-2-(2-fluorophenyl)ethoxy)phenyl)-4,5,6,7-tetrahydro-1H-isoindole-1,3(2H)-dione] showed a melting point of 141 to 143 °C. The “Post-emergence herbicidal activity, A. theophrasti (grade)” value in the series on Abutilon theophrasti (dosage 2.5 g/mu) is 5 (Grade 5: the growth control rate is greater than or equal to 85%). Besides, the “Post-emergence herbicidal activity, A. theophrasti (grade)” value in the series on Abutilon theophrasti (dosage 5 g/mu) is on record as 5 (Grade 5: the growth control rate is greater than or equal to 85%). In the series with Abutilon theophrasti (dosage 10 g/mu), the “Post-emergence herbicidal activity, A. theophrasti (grade)” value is on record as 5 (Grade 5: the growth control rate is greater than or equal to 85%). Further, in the series with Amaranthus retroflexus (dosage 2.5 g/mu), the “Post-emergence herbicidal activity, A. retroflexus (grade)” value was 5 (Grade 5: the growth control rate is greater than or equal to 85%). Moreover, the “Post-emergence herbicidal activity, A. retroflexus (grade)” value in the series on Amaranthus retroflexus (dosage 5 g/mu) is given as 5 (Grade 5: the growth control rate is greater than or equal to 85%). In addition, in the series with Amaranthus retroflexus (dosage 10 g/mu), the “Post-emergence herbicidal activity, A. retroflexus (grade)” value was 5 (Grade 5: the growth control rate is greater than or equal to 85%). Further, in the series on Echinochloa crusgalli (dosage 2.5 g/mu), the “Post-emergence herbicidal activity, E. crusgalli (grade)” value was 1 (Grade 1: the growth control rate is greater than or equal to 5% and less than 20%). Besides, in the series on Echinochloa crusgalli (dosage 5 g/mu), the “Post-emergence herbicidal activity, E. crusgalli (grade)” value was 2 (Grade 2: the growth control rate is greater than or equal to 20% and less than 40%). The “Post-emergence herbicidal activity, E. crusgalli (grade)” value with Echinochloa crusgalli (dosage 10 g/mu) is 3 (Grade 3: the growth control rate is greater than or equal to 40% and less than 60%). The “Post-emergence herbicidal activity, P. oleracea (grade)” value in the series with Portulaca oleracea (dosage 2.5 g/mu) is 5 (Grade 5: the growth control rate is greater than or equal to 85%). Also, in the series with Portulaca oleracea (dosage 5 g/mu), the “Post-emergence herbicidal activity, P. oleracea (grade)” value was 5 (Grade 5: the growth control rate is greater than or equal to 85%). In the series on Portulaca oleracea (dosage 10 g/mu), the “Post-emergence herbicidal activity, P. oleracea (grade)” value is 5 (Grade 5: the growth control rate is greater than or equal to 85%). Moreover, in the series on Setaria viridis (dosage 2.5 g/mu), the “Post-emergence herbicidal activity, S. viridis (grade)” value is 2 (Grade 2: the growth control rate is greater than or equal to 20% and less than 40%). In addition, the “Post-emergence herbicidal activity, S. viridis (grade)” value in the series with Setaria viridis (dosage 5 g/mu) is 3 (Grade 3: the growth control rate is greater than or equal to 40% and less than 60%). In the series with Setaria viridis (dosage 10 g/mu), the “Post-emergence herbicidal activity, S. viridis (grade)” value was 4 (Grade 4: the growth control rate is greater than or equal to 60% and less than 85%). Moreover, the “Post-emergence herbicidal activity, Trifoliumre pensL. (grade)” value in the series on Trifoliumre pensL. (dosage 2.5 g/mu) is on record as 5 (Grade 5: the growth control rate is greater than or equal to 85%). For the same compound, in the series with Trifoliumre pensL. (dosage 5 g/mu), the “Post-emergence herbicidal activity, Trifoliumre pensL. (grade)” value was 5 (Grade 5: the growth control rate is greater than or equal to 85%). Also, the “Post-emergence herbicidal activity, Trifoliumre pensL. (grade)” value with Trifoliumre pensL. (dosage 10 g/mu) was 5 (Grade 5: the growth control rate is greater than or equal to 85%).
